{
  "source": "paper PMC4404097",
  "about": "“The Inhibitory Effects of Ca^2+ Channel Blocker Nifedipine on Rat Kv2.1 Potassium Channels” (PLoS ONE, 2015)",
  "key": {"rat Kv2.1 [1]": {"target": "T1, rat Kv2.1 (Rattus norvegicus, UniProt P15387)", "T1 construct": "gene Kcnb1; rat Kv2.1 subcloned in pEYFP-N1 (XhoI/EcoRI); homotetramer", "T1 sequence (P15387 1-857)": "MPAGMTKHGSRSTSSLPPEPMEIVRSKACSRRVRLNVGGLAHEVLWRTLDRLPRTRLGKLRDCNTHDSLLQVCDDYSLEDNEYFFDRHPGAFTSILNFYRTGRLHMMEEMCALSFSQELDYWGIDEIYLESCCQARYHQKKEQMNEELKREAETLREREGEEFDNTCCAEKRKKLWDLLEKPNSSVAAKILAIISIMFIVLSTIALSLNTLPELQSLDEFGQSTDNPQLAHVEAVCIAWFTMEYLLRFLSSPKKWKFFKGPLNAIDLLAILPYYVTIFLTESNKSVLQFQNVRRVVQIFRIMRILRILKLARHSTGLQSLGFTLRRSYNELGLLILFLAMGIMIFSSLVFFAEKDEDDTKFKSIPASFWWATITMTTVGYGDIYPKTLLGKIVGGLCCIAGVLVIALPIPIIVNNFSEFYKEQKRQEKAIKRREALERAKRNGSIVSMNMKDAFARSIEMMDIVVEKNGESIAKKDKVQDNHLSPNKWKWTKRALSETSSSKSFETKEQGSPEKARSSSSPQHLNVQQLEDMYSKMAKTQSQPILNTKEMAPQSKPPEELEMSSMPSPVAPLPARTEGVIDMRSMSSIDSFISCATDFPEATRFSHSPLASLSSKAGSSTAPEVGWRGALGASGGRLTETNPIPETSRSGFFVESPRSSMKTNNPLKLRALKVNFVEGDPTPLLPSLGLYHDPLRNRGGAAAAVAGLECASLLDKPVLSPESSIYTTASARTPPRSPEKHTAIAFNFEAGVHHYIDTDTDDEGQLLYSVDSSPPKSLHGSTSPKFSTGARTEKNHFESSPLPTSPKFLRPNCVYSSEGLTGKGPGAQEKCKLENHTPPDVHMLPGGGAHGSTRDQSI", "assay": "whole-cell patch clamp, Hill fit of concentration-response", "type": "cell-based"}, "rat Kv2.1 [2]": {"target": "T2, rat Kv2.1 (Rattus norvegicus, UniProt P15387, Y380R)", "T2 construct": "gene Kcnb1; rat Kv2.1 subcloned in pEYFP-N1 (XhoI/EcoRI); homotetramer", "T2 sequence (P15387 1-857 Y380R)": "T1 sequence (P15387 1-857) with Y380R", "assay": "whole-cell patch clamp, Hill fit of concentration-response", "type": "cell-based"}},
  "note": "Substitutions are numbered along the chain they refer to.",
  "data": [
    {"compound": "COC(=O)C1=C(C)NC(C)=C(C(=O)OC)C1c1ccccc1[N+](=O)[O-]", "note": "[nifedipine]", "values": [
      {"measurement": "IC50", "setting": "rat Kv2.1 [1]", "result": "37.5 ± 5.7", "unit": "µM"},
      {"measurement": "IC50", "setting": "rat Kv2.1 [2]", "result": "15.2 ± 1.3", "unit": "µM"}
    ]}
  ]
}
